Reference: US9198420B2, “Rodenticidal norbormide analogues” (priority 2012, dated 2015)
Where two headings read alike, the source gives them in different places.

Columns and labels:
rat caudal artery = test: Rat caudal artery ring contractile force (vasoconstrictory activity); design: species or system rat (male Wistar)
Experimental: Male Wistar rats (150-250 g) were obtained from Charles River Italia (Milano, Italy) and killed by decapitation. Ventral caudal artery was isolated, placed in Tyrode solution at room temperature and cleaned of extraneous fatty and connective tissue under a dissection microscope. All vessels were cut into rings 2 mm long, mounted on a custom-built plexiglass support by means of two intraluminal tungsten wires and placed in 20 mL double-jacketed organ baths filled with Tyrode solution of the following composition (mM): NaCl 125, KCl 5, CaCl2 2.7, MgSO4 1, KH2PO4 1.2, NaHCO3 25 and glucose 11, maintained at 37° C., pH 7.35, bubbled with 95% O2 and […]. The endothelium was removed by gently rubbing the lumen of the rings with a very thin rough-surfaced tungsten wire (caudal artery). The mechanical activity of the rings was detected by means of an isometric force transducer (Ugo Basile, Comerio, Italy) coupled to a pen recorder (Ugo Basile, Comerio, Italy). Rings were passively stretched to impose a resting tension (2 g) and were allowed to equilibrate for 60 min. After equilibration, each ring was repeatedly simulated with both KCl (90 mM) and phenylephrine (10 μM) until reproducible responses were obtained. To verify the absence of the endothelium, rings contracted with 1 μM phenylephrine were exposed to […] carbamylcholine. […] Each compound was tested for the vasoconstrictor activity at a concentration of 50 μM, which has been previously reported to be the one evoking the maximal response to norbormide. The contractile responses to the compounds were expressed as percent of the 90 mM KCl response.

Sprague Dawley rats = test: In vivo lethality, oral gavage; design: species or system rat (Sprague Dawley); conditions: rat, n = 2
Experimental: Sprague Dawley rats (150-200 g) were used to appraise the rodenticidal activity of the compounds put forward for in vivo evaluation. Briefly, prior to administration the compounds were dissolved in 0.2 M hydrochloric acid (5% DMSO overall), to the desired dose, and without delay either injected intravenously, via the tail, or orally gavaged. All treated animals were housed in a quiet room and monitored every minute (i.v) or every 15 min (oral) to verify early signs of toxicity.

[1] = Table 1, read-out: Vasoconstriction: maximum contractile effect as a % of 90 mM KCl contraction
[2] = Table 7, compounds of formula (V)

| SMILES | Vasoconstriction: maximum contractile effect as a % of 90 mM KCl contraction (rat caudal artery; Table 1, compound at 50 μM) | further results |
| --- | --- | --- |
| Cc1ccc(C=CC(=O)OCCN2C(=O)C3C4C=C(C(O)(c5ccccc5)c5ccccn5)C(C4=C(c4ccccc4)c4ccccn4)C3C2=O)cc1 (stereo not drawn) [Compound 128] | 42% |  |
| CN(C)c1ccc(C=CC(=O)OCCN2C(=O)C3C4C=C(C(O)(c5ccccc5)c5ccccn5)C(C4=C(c4ccccc4)c4ccccn4)C3C2=O)cc1 (stereo not drawn) [Compound 131] | 30% |  |
| O=C(OCOCCN1C(=O)C2C3C=C(C(O)(c4ccccc4)c4ccccn4)C(C3=C(c3ccccc3)c3ccccn3)C2C1=O)C(c1ccccc1)c1ccccc1 (stereo not drawn) [Compound 201, N-[2′-(Diphenylacetyloxymethyloxy)ethyl]-5-(α-hydroxy-α-2-pyridylbenzyl)-7-(α-2-pyridylbenzylidene)-5-norbornene-2,3-dicarboximide] |  | Emax (rat caudal artery; [1]): ≥ 132% |
| COc1cccc(C(=O)OCCN2C(=O)C3C4C=C(C(O)(c5ccccc5)c5ccccn5)C(C4=C(c4ccccc4)c4ccccn4)C3C2=O)c1 (stereo not drawn) [Compound 115, 5-(α-Hydroxy-α-2-pyridylbenzyl)-N-2′-m-methoxybenzoyloxyethyl-7-(α-2-pyridylbenzylidene)-5-norbornene-2,3-dicarboximide] | 52% |  |
| CC(C)(C)C(=O)OCCN1C(=O)C2C3C=C(C(O)(c4ccccc4)c4ccccn4)C(C3=C(c3ccccc3)c3ccccn3)C2C1=O (stereo not drawn) [Compound 109, 5-(α-Hydroxy-α-2-pyridylbenzyl)-N-2′-pivaloyloxyethyl-7-(α-2-pyridylbenzylidene)-5-norbornene-2,3-dicarboximide] | ≧132% |  |
| COc1ccc(C=CC(=O)NCCN2C(=O)C3C4C=C(C(O)(c5ccccc5)c5ccccn5)C(C4=C(c4ccccc4)c4ccccn4)C3C2=O)cc1 (stereo not drawn) [Compound 361, 5-(α-Hydroxy-α-2-pyridylbenzyl)-N-[2′-(4″-methoxycinnamamido)ethyl]-7-(α-2-pyridylbenzylidene)-5-norbornene-2,3-dicarboximide] |  | Emax (rat caudal artery; Table 2, read-out: Vasoconstriction: maximum contractile effect as a % of 90 mM KCl contraction): 21%; Vasoconstriction: maximum contractile effect as a % of 90 mM KCl contraction (rat caudal artery; Table 4, pre-cleavage, n = 3): 21%; In vivo lethality (oral) (Sprague Dawley rats; 20 mg/Kg): yes^h,i; In vivo lethality (oral) (Sprague Dawley rats; 40 mg/Kg): yes^h,i |
| COc1ccc(C(=O)OCCN2C(=O)C3C4C=C(C(O)(c5ccccc5)c5ccccn5)C(C4=C(c4ccccc4)c4ccccn4)C3C2=O)cc1 (stereo not drawn) [Compound 116, 5-(α-Hydroxy-α-2-pyridylbenzyl)-N-2′-p-methoxybenzoyloxyethyl-7-(α-2-pyridylbenzylidene)-5-norbornene-2,3-dicarboximide] | ≧132% |  |
| O=C(OCCN1C(=O)C2C3C=C(C(O)(c4ccccc4)c4ccccn4)C(C3=C(c3ccccc3)c3ccccn3)C2C1=O)c1ccccc1 (stereo not drawn) [Compound 113, N-2′-Benzoyloxyethyl-5-(α-hydroxy-α-2-pyridylbenzyl)-7-(α-2-pyridylbenzylidene)-5-norbornene-2,3-dicarboximide] | ≧132% |  |
| O=C(C=Cc1ccc2ccccc2c1)OCCN1C(=O)C2C3C=C(C(O)(c4ccccc4)c4ccccn4)C(C3=C(c3ccccc3)c3ccccn3)C2C1=O (stereo not drawn) [Compound 188, 5-(α-Hydroxy-α-2-pyridylbenzyl)-N-[2′-(2″-naphthylacryloyloxy)ethyl]-7-(α-2-pyridylbenzylidene)-5-norbornene-2,3-dicarboximide] | 0% |  |
| COc1cccc(C=CC(=O)OCCN2C(=O)C3C4C=C(C(O)(c5ccccc5)c5ccccn5)C(C4=C(c4ccccc4)c4ccccn4)C3C2=O)c1 (stereo not drawn) [Compound 125, 5-(α-1-hydroxy-α-2-pyridylbenzyl)-N-[2′-(3″-methoxycinnamoyloxy)ethyl]-7-(α-2-pyridylbenzylidene)-5-norbornene-2,3-dicarboximide] | 80% |  |
| O=C(CCC(=O)Oc1ccccc1)OCCN1C(=O)C2C3C=C(C(O)(c4ccccc4)c4ccccn4)C(C3=C(c3ccccc3)c3ccccn3)C2C1=O (stereo not drawn) [Compound 204, 5-(α-Hydroxy-α-2-pyridylbenzyl)-N-2′-(monophenyl)succinoyloxyethyl-7-(α-2-pyridylbenzylidene)-5-norbornene-2,3-dicarboximide] | 0% |  |
| O=C(CCc1ccccc1)OCCN1C(=O)C2C3C=C(C(O)(c4ccccc4)c4ccccn4)C(C3=C(c3ccccc3)c3ccccn3)C2C1=O (stereo not drawn) [Compound 119, N-2′-Dihydrocinnamoyloxyethyl-5-(α-hydroxy-α-2-pyridylbenzyl)-7-(α-2-pyridylbenzylidene)-5-norbornene-2,3-dicarboximide] | ≧132% |  |
| CS(=O)(=O)c1ccc(C=CC(=O)OCCN2C(=O)C3C4C=C(C(O)(c5ccccc5)c5ccccn5)C(C4=C(c4ccccc4)c4ccccn4)C3C2=O)cc1 (stereo not drawn) [Compound 329, 5-(α-Hydroxy-α-2-pyridylbenzyl)-N-[2′-(4″-methylsulfonylcinnamoyloxy)ethyl]-7-(α-2-pyridylbenzylidene)-5-norbornene-2,3-dicarboximide] |  | Emax (rat caudal artery; [1]): 88%; Vasoconstriction: maximum contractile effect as a % of 90 mM KCl contraction (rat caudal artery; Table 4, pre-cleavage, n = 3): 88%; In vivo lethality (oral) (Sprague Dawley rats; 40 mg/Kg): yes^h |
| O=C(Cc1ccccc1)OCCN1C(=O)C2C3C=C(C(O)(c4ccccc4)c4ccccn4)C(C3=C(c3ccccc3)c3ccccn3)C2C1=O (stereo not drawn) [Compound 117, 5-(α-Hydroxy-α-2-pyridylbenzyl)-N-2′-phenylacetyloxyethyl-7-(α-2-pyridylbenzylidene)-5-norbornene-2,3-dicarboximide] | ≧132% |  |
| CC(O)CN1C(=O)C2C3C=C(C(O)(c4ccccc4)c4ccccn4)C(C3=C(c3ccccc3)c3ccccn3)C2C1=O (stereo not drawn) [Compound 103, N-2′-Hydroxypropyl-5-(α-hydroxy-α-2-pyridylbenzyl)-7-(α-2-pyridylbenzylidene)-5-norbornene-2,3-dicarboximide] |  | Vasoconstriction: maximum contractile effect as a % of 90 mM KCl contraction (rat caudal artery; [2]): 67%; Vasoconstriction: maximum contractile effect as a % of 90 mM KCl contraction (rat caudal artery; n = 3, Table 8): 67% |
| CCCCCCCCCCCC(=O)OCN1C(=O)C2C3C=C(C(O)(c4ccccc4)c4ccccn4)C(C3=C(c3ccccc3)c3ccccn3)C2C1=O (stereo not drawn) [Compound 11, N-Dodecanoyloxymethyl-5-(α-hydroxy-α-2-pyridylbenzyl)-7-(α-2-pyridylbenzylidene)-5-norbornene-2,3-dicarboximide] |  | Emax (rat caudal artery; [1]): 0%; Vasoconstriction: maximum contractile effect as a % of 90 mM KCl contraction (rat caudal artery; Table 4, pre-cleavage, n = 3): 0% |
| O=C1C2C3C=C(C(O)(c4ccccc4)c4ccccn4)C(C3=C(c3ccccc3)c3ccccn3)C2C(=O)N1CCCCO (stereo not drawn) [Compound 105, N-4′-Hydroxybutyl-5-(α-hydroxy-α-2-pyridylbenzyl)-7-(α-2-pyridylbenzylidene)-5-norbornene-2,3-dicarboximide] |  | Vasoconstriction: maximum contractile effect as a % of 90 mM KCl contraction (rat caudal artery; [2]): 100%; Vasoconstriction: maximum contractile effect as a % of 90 mM KCl contraction (rat caudal artery; n = 3, Table 8): 100% |
| O=C(C=Cc1ccccc1)NCCN1C(=O)C2C3C=C(C(O)(c4ccccc4)c4ccccn4)C(C3=C(c3ccccc3)c3ccccn3)C2C1=O (stereo not drawn) [Compound 365, N-2′-Cinnamamidoethyl-5-(α-hydroxy-α-2-pyridylbenzyl)-7-(α-2-pyridylbenzylidene)-5-norbornene-2,3-dicarboximide] |  | Vasoconstriction: maximum contractile effect as a % of 90 mM KCl contraction (rat caudal artery; Table 2, compound at 50 μM): 43% |
| COc1ccc(C=CC(=O)OCCN2C(=O)C3C4C=C(C(O)(c5ccccc5)c5ccccn5)C(C4=C(c4ccccc4)c4ccccn4)C3C2=O)cc1OC (stereo not drawn) [Compound 132] | 120% |  |
| CCCC(=O)OCCN1C(=O)C2C3C=C(C(O)(c4ccccc4)c4ccccn4)C(C3=C(c3ccccc3)c3ccccn3)C2C1=O (stereo not drawn) [Compound 110, N-2′-Butanoyloxyethyl-5-(α-hydroxy-α-2-pyridylbenzyl)-7-(α-2-pyridylbenzylidene)-5-norbornene-2,3-dicarboximide] | ≧132% |  |
| O=C(/C=C/C=C/c1ccccc1)OCCN1C(=O)C2C3C=C(C(O)(c4ccccc4)c4ccccn4)C(C3=C(c3ccccc3)c3ccccn3)C2C1=O (stereo not drawn) [Compound 187, 5-(α-Hydroxy-α-2-pyridylbenzyl)-N-[2′-(5″-phenyl-2″E,4″E-pentadienoyloxy)ethyl]-7-(α-2-pyridylbenzylidene)-5-norbornene-2,3-dicarboximide] | 0% |  |
| COc1ccccc1C(=O)OCCN1C(=O)C2C3C=C(C(O)(c4ccccc4)c4ccccn4)C(C3=C(c3ccccc3)c3ccccn3)C2C1=O (stereo not drawn) [Compound 114, 5-(α-Hydroxy-α-2-pyridylbenzyl)-N-2′-o-methoxybenzoyloxyethyl-7-(α-2-pyridylbenzylidene)-5-norbornene-2,3-dicarboximide] | ≧132% |  |
